Reference: patent US10150766B2, “P2X7 modulators” (Jansssen Pharmaceutica NV, priority 2014, dated 2018)
Values joined by “and” are separate entries in the source; they are usually repeats but may differ in a detail not shown here. Equal entries are not always repeated.

Experiments:
rat P2X7 = rat P2X7 (Rattus norvegicus (Rat), UniProt Q64663); assay: P2X7 antagonism in recombinant rat P2X7 cells (column headed P2X7 Rat IC50); format: binding
Protocol: The in vitro affinity of the compounds of the invention for the rat and human P2X7 receptor was determined using a human peripheral blood mononuclear cells (PBMCs), a human whole blood assay, a Ca^2+ flux and radioligand binding assay in recombinant human P2X7 cells and recombinant rat P2X7 cells. […] The data represented in Tables 2 may represent a value from a single determination or when the experiment was run more than once, the data represents the average from between 2-12 runs.
P2X7 Antagonism in Recombinant Human P2X7 Cells or Recombinant Rat P2X7 Cells: […]

P2X7 [1] = target: T1, P2X7 (Homo sapiens (Human), UniProt Q99572); assay: P2X7 antagonism in human peripheral blood mononuclear cells (PBMCs), IL-1β release (LPS + Bz-ATP, ELISA); format: cell-based; conditions: P2X7, 10 μM test compound, LPS 30 ng/ml + Bz-ATP 0.5 mM, read-out: PBMC @10 μM (% control)
Protocol: (§1) P2X7 Antagonism in Human Peripheral Blood Mononuclear Cells (PBMCs) and Human Whole Blood.
(§2) Human blood was collected using a blood donor program. PBMCs were isolated from blood using a Ficoll density gradient technique. Briefly, blood was laid on Ficoll solution and centrifuged at ROOM TEMPERATURE for 20 minutes at 2000 rpm. The buffy layer (between red blood cells and plasma) was carefully collected by aspiration, washed with PBS and centrifuged again at 1500 rpm for 15 minutes. The resulting cell pellet was washed and plated on 96 well-plates for experiments. For the Human Whole Blood experiments, 150 μl of human blood was plated on 96 well-plates. Lipopolysaccharide (LPS) (30 ng/ml) was added to each well and incubated for 1 hour. Test compounds were then added and incubated for 30 minutes. The P2X7 agonist, 2′(3′)-O-(4-benzoylbenzoyl) adenosine 5′-triphosphate (Bz-ATP) was then added at a final concentration of 0.5 mM (PBMC) or 1 mM (blood). Cells were incubated for an additional 1.5 hours. At that point, supernatant was collected and stored for IL-1β assay using manufacturer's protocol for enzyme-linked immunosorbant assay (ELISA). Data was expressed as percent control, where control is defined as the difference in IL-1β release in LPS+Bz-ATP samples and LPS only samples. Data was plotted as response (% control) versus concentration to generate IC50 values. […] Data are analyzed and graphed on Graphpad Prism 5. For analysis, each concentration point is averaged from triplicate values and the averaged values are plotted on Graphpad Prism. The IC50 for each compound is then uploaded into 3DX.

P2X7 [2] = target: T1, P2X7; assay: P2X7 antagonism in human whole blood, IL-1β release (LPS + Bz-ATP, ELISA); format: cell-based; conditions: Human Whole Blood IC50 (μM), LPS 30 ng/ml + Bz-ATP 1 mM
Protocol: as §1, §2

T1 sequence (Q99572 whole entry): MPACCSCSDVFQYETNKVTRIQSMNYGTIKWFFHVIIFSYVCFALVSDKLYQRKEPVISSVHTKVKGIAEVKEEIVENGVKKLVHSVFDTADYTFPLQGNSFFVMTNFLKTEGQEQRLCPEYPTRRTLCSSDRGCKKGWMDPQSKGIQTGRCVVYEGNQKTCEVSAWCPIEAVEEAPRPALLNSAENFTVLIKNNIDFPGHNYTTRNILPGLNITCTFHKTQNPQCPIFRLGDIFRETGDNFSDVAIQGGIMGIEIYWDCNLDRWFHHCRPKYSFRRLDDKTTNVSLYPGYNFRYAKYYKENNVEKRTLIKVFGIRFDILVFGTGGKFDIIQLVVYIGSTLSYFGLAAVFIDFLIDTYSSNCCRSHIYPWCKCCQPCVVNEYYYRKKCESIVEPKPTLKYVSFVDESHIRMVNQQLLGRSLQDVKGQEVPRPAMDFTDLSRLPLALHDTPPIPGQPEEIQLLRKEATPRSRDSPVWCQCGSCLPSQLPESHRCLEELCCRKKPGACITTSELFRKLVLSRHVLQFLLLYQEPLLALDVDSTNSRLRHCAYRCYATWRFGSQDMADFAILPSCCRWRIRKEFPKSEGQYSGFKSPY
Sequence of rat P2X7 (Q64663 whole entry): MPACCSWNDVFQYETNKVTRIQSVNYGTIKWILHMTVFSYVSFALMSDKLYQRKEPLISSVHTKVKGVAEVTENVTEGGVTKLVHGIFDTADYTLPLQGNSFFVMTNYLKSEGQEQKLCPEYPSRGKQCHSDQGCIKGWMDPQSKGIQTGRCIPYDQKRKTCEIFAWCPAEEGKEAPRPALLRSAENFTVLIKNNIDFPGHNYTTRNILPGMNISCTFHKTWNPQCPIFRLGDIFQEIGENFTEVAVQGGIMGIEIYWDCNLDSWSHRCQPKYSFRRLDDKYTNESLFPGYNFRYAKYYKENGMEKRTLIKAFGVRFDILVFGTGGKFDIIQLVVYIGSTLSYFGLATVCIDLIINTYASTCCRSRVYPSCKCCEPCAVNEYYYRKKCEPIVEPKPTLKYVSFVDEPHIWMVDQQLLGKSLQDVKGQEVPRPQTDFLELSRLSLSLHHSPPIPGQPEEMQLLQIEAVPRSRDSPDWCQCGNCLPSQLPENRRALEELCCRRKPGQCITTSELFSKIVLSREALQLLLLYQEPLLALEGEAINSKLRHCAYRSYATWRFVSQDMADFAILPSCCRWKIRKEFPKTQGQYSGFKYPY

SMILES | IC50 (rat P2X7) [nM] | remaining activity at 10 µM (P2X7 [1]) [%] | IC50 (P2X7 [2])
Cc1nc(-c2cnccn2)c2c(n1)[C@H]1CCC[C@@H](C2)N1C(=O)c1ccnc(C(F)(F)F)c1Cl [Example 49, (3-chloro-2-(trifluoromethyl)pyridin-4-yl)((6S,10R)-2-methyl-4-(pyrazin-2-yl)-5,6,7,8,9,10-hexahydro-6,10-epiminocycloocta[d]pyrimidin-11-yl)methanone] | 139 | -1.9 | 
Cc1nc(-c2ccn[nH]2)c2c(n1)[C@@H]1CCC[C@H](C2)N1C(=O)c1cccc(C(F)(F)F)c1C [Example 6, (2-methyl-3-(trifluoromethyl)phenyl)((6R,10S)-2-methyl-4-(1H-pyrazol-5-yl)-5,6,7,8,9,10-hexahydro-6,10-epiminocycloocta[d]pyrimidin-11-yl)methanone] | 970 | 18.1 | 1.13 µM
Cc1nc(-c2cnn(C)c2)c2c(n1)[C@H]1CCC[C@@H](C2)N1C(=O)c1cccc(Cl)c1Cl [Example 31, (2,3-dichlorophenyl)((6S,10R)-2-methyl-4-(1-methyl-1H-pyrazol-4-yl)-5,6,7,8,9,10-hexahydro-6,10-epiminocycloocta[d]pyrimidin-11-yl)methanone] | > 10000 | -0.9 | 2.67 µM
Cc1nc(-c2ncccn2)c2c(n1)[C@H]1CCC[C@@H](C2)N1C(=O)c1cccc(C(F)(F)F)c1C [Example 43, (2-methyl-3-(trifluoromethyl)phenyl)((6S,10R)-2-methyl-4-(pyrimidin-2-yl)-5,6,7,8,9,10-hexahydro-6,10-epiminocycloocta[d]pyrimidin-11-yl)methanone] | 41.7 | 15 | 
Cc1nc(-c2ccc(F)cc2)c2c(n1)[C@H]1CCC[C@@H](C2)N1C(=O)c1ccc(Cl)c(F)c1Cl [Example 54, (2,4-dichloro-3-fluorophenyl)((6S,10R)-4-(4-fluorophenyl)-2-methyl-5,6,7,8,9,10-hexahydro-6,10-epiminocycloocta[d]pyrimidin-11-yl)methanone] | 372 | 9.3 | 
Cc1nc(-c2cnn(C)c2)c2c(n1)[C@H]1CCC[C@@H](C2)N1C(=O)c1cccc(C(F)(F)F)c1C [Example 39, (2-methyl-3-(trifluoromethyl)phenyl)((6S,10R)-2-methyl-4-(1-methyl-1H-pyrazol-4-yl)-5,6,7,8,9,10-hexahydro-6,10-epiminocycloocta[d]pyrimidin-11-yl)methanone] | > 10000 | 1 | 1.09 µM
Cc1nc(-c2ccn[nH]2)c2c(n1)[C@@H]1CCC[C@H](C2)N1C(=O)c1ccc(Cl)cc1Cl [Example 5, (2,4-dichlorophenyl)((6R,10S)-2-methyl-4-(1H-pyrazol-5-yl)-5,6,7,8,9,10-hexahydro-6,10-epiminocycloocta[d]pyrimidin-11-yl)methanone] |  | 76.5 | 2 µM
Cc1nc(-c2cnccn2)c2c(n1)[C@H]1CCC[C@@H](C2)N1C(=O)c1cccc(Cl)c1Cl [Example 48, (2,3-dichlorophenyl)((6S,10R)-2-methyl-4-(pyrazin-2-yl)-5,6,7,8,9,10-hexahydro-6,10-epiminocycloocta[d]pyrimidin-11-yl)methanone] | 54.3 | -4.3 | 
Cc1nc(-c2ccn[nH]2)c2c(n1)[C@@H]1CCC[C@H](C2)N1C(=O)c1cccc(C(F)(F)F)c1F [Example 8, (2-fluoro-3-(trifluoromethyl)phenyl)((6R,10S)-2-methyl-4-(1H-pyrazol-5-yl)-5,6,7,8,9,10-hexahydro-6,10-epiminocycloocta[d]pyrimidin-11-yl)methanone] | 601 | 31.9 | 
Cc1nc(-c2ccn[nH]2)c2c(n1)C1CCCC(C2)N1C(=O)c1cccc(C(F)(F)F)c1Cl (centres unmarked) [Example 2, (2-chloro-3-(trifluoromethyl)phenyl)(2-methyl-4-(1H-pyrazol-5-yl)-5,6,7,8,9,10-hexahydro-6,10-epiminocycloocta[d]pyrimidin-11-yl)methanone] |  | 1.1 | 
Cc1nc(-c2cnn(C)c2)c2c(n1)[C@H]1CCC[C@@H](C2)N1C(=O)c1cccc(C(F)(F)F)c1Cl [Example 30, (2-chloro-3-(trifluoromethyl)phenyl)((6S,10R)-2-methyl-4-(1-methyl-1H-pyrazol-4-yl)-5,6,7,8,9,10-hexahydro-6,10-epiminocycloocta[d]pyrimidin-11-yl)methanone] | > 10000 | -3.7 | 
Cc1nc(-c2ccn[nH]2)c2c(n1)[C@@H]1CCC[C@H](C2)N1C(=O)c1cccc(C(F)(F)F)c1Cl [Example 3, (2-chloro-3-(trifluoromethyl)phenyl)((6R,10S)-2-methyl-4-(1H-pyrazol-5-yl)-5,6,7,8,9,10-hexahydro-6,10-epiminocycloocta[d]pyrimidin-11-yl)methanone] | 811 | 22 | 
Cc1nc(-c2cnn(C)c2)c2c(n1)[C@H]1CCC[C@@H](C2)N1C(=O)c1ccc(F)cc1Cl [Example 36, (2-chloro-4-fluorophenyl)((6S,10R)-2-methyl-4-(1-methyl-1H-pyrazol-4-yl)-5,6,7,8,9,10-hexahydro-6,10-epiminocycloocta[d]pyrimidin-11-yl)methanone] |  | 73.8 | 
Cc1nc(-c2ccn[nH]2)c2c(n1)[C@H]1CCC[C@@H](C2)N1C(=O)c1cccc(C(F)(F)F)c1Cl [Example 19, (2-chloro-3-(trifluoromethyl)phenyl)((6S,10R)-2-methyl-4-(1H-pyrazol-5-yl)-5,6,7,8,9,10-hexahydro-6,10-epiminocycloocta[d]pyrimidin-11-yl)methanone] | 12.2 | -3 | 
Cc1nc(-c2ccc(F)cc2)c2c(n1)[C@@H]1CCC[C@H](C2)N1C(=O)c1ccnc(C(F)(F)F)c1Cl [Example 18, (3-chloro-2-(trifluoromethyl)pyridin-4-yl)((6R,10S)-4-(4-fluorophenyl)-2-methyl-5,6,7,8,9,10-hexahydro-6,10-epiminocycloocta[d]pyrimidin-11-yl)methanone] | > 10000 | 28.9 | 
Cc1nc(-c2ccc(F)cc2)c2c(n1)[C@@H]1CCC[C@H](C2)N1C(=O)c1ccc(Cl)cc1Cl [Example 15, (2,4-dichlorophenyl)((6R,10S)-4-(4-fluorophenyl)-2-methyl-5,6,7,8,9,10-hexahydro-6,10-epiminocycloocta[d]pyrimidin-11-yl)methanone] |  |  | 5.05 µM and 13.3 µM
Cc1nc(-c2ccn[nH]2)c2c(n1)[C@H]1CCC[C@@H](C2)N1C(=O)c1cccc(C(F)(F)F)c1F [Example 26, (2-fluoro-3-(trifluoromethyl)phenyl)((6S,10R)-2-methyl-4-(1H-pyrazol-5-yl)-5,6,7,8,9,10-hexahydro-6,10-epiminocycloocta[d]pyrimidin-11-yl)methanone] | 41.4 | -3.8 | 
Cc1nc(-c2cnn(C)c2)c2c(n1)[C@H]1CCC[C@@H](C2)N1C(=O)c1ccc(Cl)cc1Cl [Example 40, (2,4-dichlorophenyl)((6S,10R)-2-methyl-4-(1-methyl-1H-pyrazol-4-yl)-5,6,7,8,9,10-hexahydro-6,10-epiminocycloocta[d]pyrimidin-11-yl)methanone] |  | 76.2 | 
Cc1nc(-c2ccc(F)cc2)c2c(n1)[C@@H]1CCC[C@H](C2)N1C(=O)c1ccc(F)c(Cl)c1Cl [Example 17, (2,3-dichloro-4-fluorophenyl)((6R,10S)-4-(4-fluorophenyl)-2-methyl-5,6,7,8,9,10-hexahydro-6,10-epiminocycloocta[d]pyrimidin-11-yl)methanone] |  | 13.3 | 2.02 µM
Cc1nc(-c2ccc(F)cc2)c2c(n1)[C@H]1CCC[C@@H](C2)N1C(=O)c1ccnc(C(F)(F)F)c1Cl [Example 52, (3-chloro-2-(trifluoromethyl)pyridin-4-yl)((6S,10R)-4-(4-fluorophenyl)-2-methyl-5,6,7,8,9,10-hexahydro-6,10-epiminocycloocta[d]pyrimidin-11-yl)methanone] | 81.8 | -1.2 | 
Cc1nc(-c2ccccn2)c2c(n1)[C@H]1CCC[C@@H](C2)N1C(=O)c1ccnc(C(F)(F)F)c1Cl [Example 61, (3-chloro-2-(trifluoromethyl)pyridin-4-yl)((6S,10R)-2-methyl-4-(pyridin-2-yl)-5,6,7,8,9,10-hexahydro-6,10-epiminocycloocta[d]pyrimidin-11-yl)methanone] | 46 | 0.4 | 
